Marks after values point to notes of the source that are not given here. Numbered stars: 1 amine (or outer) side, 2 acyl side, 3 side chain; on linkers, the order of the positions; unused ones are H or OH. Bridge positions count the residues as written; N and C are the ends. Square brackets hold non-standard residues; d marks the D form. Peptide text beside a SMILES is read from it. * marks the point of attachment. Octanoyl(6-Me) = CCC(C)CCCCC(=O)*; NH(2-ClPh) = Clc1ccccc1N*; Dab = NCC[CH](N)C(=O)O; CO = O=C([*:1])[*:2]
Assays:
K. pneumonia = experiment: MIC90, broth microdilution, panel of Gram negative clinical isolates; assay type: cell-based, Klebsiella pneumoniae; details: 81 strains; some strains multi-drug resistant
Protocol: (§1) To evaluate the potency and spectrum of compounds of Formula (I), (i.e., Compounds designated 5 and 6), a study was conducted that put together a panel of 455 Gram negative strains, which included multi-drug resistant clinical isolates selected from various surveillance programs. Table 3A lists the strains that were included in the study and the activity of Compound 5, Compound 6, and colistin (polymyxin E, abbreviated PME). Strains with acquired resistance to colistin and/or carbapenems and/or broad spectrum cephalosporins were pre-selected and included in all organism groups evaluated.
(§2) MIC testing was performed according to Clinical and Laboratory Standards Institute (CLSI) M7-A7 (2006) broth microdilution methods. Unless otherwise indicated, MIC values are provided in units of micrograms per milliliter.
(§3) One day prior to testing, individual colonies were isolated by streaking onto rich, non-selective Tryptic Soy agar with 5% lysed sheeps blood (TSAB) with incubation at 35-37° C. for 18-24 hours.
(§4) Cultures were prepared by touching 3-5 colonies into 3 mL of Cation adjusted Mueller Hinton Broth (caMHB) in a 14 mL tube (CaMHB was prepared and sterilized according to manufacturer's specifications). Cultures were grown at 37° C. 200 rpm for approximately four hours prior to density adjustment for addition to the MIC assay.
(§5) OD600 of growing cultures was measured and adjusted to approximately 10^5 colony forming units per mL (CFU/mL) in caMHB for MIC inoculation (approximately OD600 0.001).
(§6) Diluted cultures were used to inoculate 50 μL per well in broth microdilution assays (final volume 100 μl per well; compounds were prepared in two-fold dilutions).
(§7) Plates were incubated 16-20 hrs at 37° C., with shaking at 200 rpm.
(§8) OD600 was determined for all wells. Growth was defined as OD600>0.1. MICs were defined as the lowest concentration producing no visible turbidity (OD600<0.1).

Acinetobacter spp = experiment: as above; assay type: cell-based; details: 81 strains
Protocol: as §1, §2, §3, §4, §5, §6, §7, §8

Citrobacter spp. = experiment: as above; assay type: cell-based; details: 20 strains; some strains multi-drug resistant
Protocol: as §1, §2, §3, §4, §5, §6, §7, §8

Enterobacter = experiment: as above; assay type: cell-based; details: 20 strains; some strains multi-drug resistant
Protocol: as §1, §2, §3, §4, §5, §6, §7, §8

E. coli = experiment: as above; assay type: cell-based, Escherichia coli; details: 80 strains; some strains multi-drug resistant
Protocol: as §1, §2, §3, §4, §5, §6, §7, §8

[1] = Pharmacokinetics/toxicokinetics in repeat-dose studies; assay type: in vivo, cynomolgus monkey
Protocol: Monkeys were dosed twice or three times daily for seven days with control article (0.9% Sodium Chloride for Injection, USP), 25000 IU/kg Compound 5, 37500 IU/kg Compound 5, or 37500 IU/kg PMB (Alpharma, lot number A1411079). Each administration was given via a targeted 30-minute intravenous infusion.
The following parameters were evaluated: daily clinical observations and qualitative food consumption, body weight (twice prior to the first dosing and at necropsy), urinalysis, hematology, coagulation, serum chemistry, toxicokinetics, gross pathology, organ weights, and histopathology of the kidneys and injection sites, and of the liver and sciatic nerves of control and high dose groups. Animals were evaluated through Study Day 7 and then terminated.
At higher dose levels, a slightly greater than dose-proportional response was evident in systemic exposure (AUC) and peak plasma concentrations (Cmax). The decrease in clearance at these higher doses may explain the non-linear systemic exposure to Compound 5.

[2] = test system: Acinetobacter baumannii 1570; experiment: MIC, broth microdilution; assay type: cell-based; details: for MIC against A. baumannii #1570: Table 8, range of repeated tests
Protocol: as §2, §3, §4, §5, §6, §7, §8
A. baumannii #1570 were grown in cation adjusted Mueller Hinton Broth (caMHB) (catalog #B12322; Fisher Scientific, Pittsburgh, Pa.) at 37° C. MIC testing was performed according to Clinical and Laboratory Standards Institute [CLSI, formerly National Committee for Clinical Laboratory Standards (NCCLS), Wayne, Pa.] guidelines for broth microdilution.
MIC testing was performed according to CLSI (formerly NCCLS) guidelines for broth microdilution.

P. aeruginosa #44 = experiment: Lung infection in neutropenic mice; assay type: in vivo; details: for Log10 CFU/mL lung homogenate ± SD: lungs at 24 h; for ED−3log10 (dose for 3 log10 reduction in bacterial count vs water): lung infection, sc, Compound 5 value corrected for lot potency 711 μg/mg
Protocol: Infection was induced in normal immunocompetent or neutropenic mice by intranasal inoculation of P. aeruginosa #44. […] At 24 hours post-infection, mice were humanely euthanized and the lungs of the mice were removed, homogenized, serially diluted, and plated on agar, to quantitate the bacterial burden.
All of the test compounds were dissolved in sterile water for administration by subcutaneous (sc) injection. […] A series of dilutions of test compounds were prepared in water.
In the lung infection model using P. aeruginosa #44 as the infecting organism, CD-1 mice were made neutropenic by intraperitoneal (ip) administration with 150 mg/kg cyclophosphamide on day-4, followed by a second ip dose of 100 mg/kg cyclophosphamide on day-1. On day 0 a diluted, exponential-phase growing culture of P. aeruginosa #44 corresponding to 1×10^5 or 2.5×10^8 CFU respectively, in 0.1 mL of sterile saline, was inoculated by the intranasal route in mice. Just prior to inoculation, mice were anaesthetized with 60 mg/kg pentobarbital, ip. The actual concentration of bacteria in the inoculum was confirmed by determination of viable counts by dilution plating on tryptic soy agar plates. The number of CFU of bacteria was determined after an incubation of 16 h at 37° C.
Groups of five mice were used for each dose of the test compounds and the vehicle (water) control group. Each group received sc injections of test compounds or vehicle at 1 hour post-infection, and then at 6 hours post-infection for a total of 2 doses. In each study, there were three to five dose groups per test compound.
Eighteen hours after the last injection, the mice were euthanized by asphyxiation with CO2. The lungs were removed aseptically, homogenized in 4 mL of sterile, distilled water and dilution plated on tryptic soy agar plates to quantify bacterial CFU. The number of CFU of bacteria in lungs was determined after an incubation of 16 hours at 37° C. (the CFU per milliliter of homogenate).
The results were expressed as the geometric mean log10 CFU/mL±the standard deviation. The limit of detection was 10 CFU per mL of lung homogenate. Lungs were considered sterile when no CFU were detected on the agar. The efficacy of the test compounds was assessed by comparing the number of log10 CFU/mL measured in the infected and treated mice with control animals treated with water.
Dose response curves of test compounds were generated for each isolate. Regression lines were generated in Microsoft Excel and used to calculate the dose expected to produce a 3 log10 reduction in bacterial count as compared to water-treated group [ED−3 log 10 (mg/kg, sc, BID)].

P. aeruginosa = experiment: MIC90, broth microdilution, panel of Gram negative clinical isolates; assay type: cell-based, Pseudomonas aeruginosa; details: 100 strains
Protocol: as §1, §2, §3, §4, §5, §6, §7, §8

[3] = 4.0 mg/kg BID sc, 1 and 6 h post-infection, water control 6.53

Structure (SMILES)	MIC90 K. pneumonia (K. pneumonia)	MIC90 Acinetobacter spp (Acinetobacter spp)	MIC90 Citrobacter spp. (Citrobacter spp.)	MIC90 Enterobacter (Enterobacter)	MIC90 E. coli (E. coli)	maximal plasma concentrations (Cmax) relative to Compound 5 ([1]; greater, Day 1, 37,500 IU/kg)	systemic exposure (AUC) relative to Compound 5 ([1]; greater, same activity-normalized dose)	systemic clearance relative to Compound 5 ([1]; less, Day 1)	volume of distribution relative to Compound 5 ([1]; lower)	MIC against A. baumannii #1570 [2]	Log10 CFU/mL lung homogenate ± SD (P. aeruginosa #44; [3])	Log10 CFU/mL lung homogenate ± SD (P. aeruginosa #44; 8.0 mg/kg BID sc)	Log10 CFU/mL lung homogenate ± SD (P. aeruginosa #44; 12.0 mg/kg BID sc)	Log10 CFU/mL lung homogenate ± SD (P. aeruginosa #44; 16.0 mg/kg BID sc)	Log10 CFU/mL lung homogenate ± SD (P. aeruginosa #44; 20.0 mg/kg BID sc)	ED−3log10 (dose for 3 log10 reduction in bacterial count vs water) (P. aeruginosa #44)	MIC90 P. aeruginosa (P. aeruginosa)	volume of distribution ([1]; all species)	clearance (CL) ([1]; cynomolgus monkey, in vivo)	MIC Acinetobacter baumannii 1570 ([2]; Table 3B)
CCC(C)CCCCC(=O)NC(CCN)C(=O)NC(C(=O)NC(CCN)C(=O)NC1CCNC(=O)C(C(C)O)NC(=O)C(CCN)NC(=O)C(CCN)NC(=O)C(CC(C)C)NC(=O)C(Cc2ccccc2)NC(=O)C(CCN)NC1=O)C(C)O (stereo not drawn) [Polymyxin B, polymyxin B, reference compound] ({Octanoyl(6-Me)}-[Dab]T[Dab][Dab][Dab]FL[Dab][Dab]T; lactam 4-C; configuration not given here)	2 micrograms/mL	2 micrograms/mL	1 micrograms/mL	>64 micrograms/mL	2 micrograms/mL	approximately 2 fold	2.5 fold	2 to 3 fold	approximately 2 fold	1-2 micrograms/ml	6.48 ± 1.59 Log10 CFU/mL	5.73 ± 1.92 Log10 CFU/mL	3.47 ± 1.16 Log10 CFU/mL	2.88 ± 1.07 Log10 CFU/mL	2.71 ± 1.09 Log10 CFU/mL	12.97 mg/kg, BID	2 micrograms/mL			
CC(C)C[C@@H]1NC(=O)[C@@H](Cc2ccccc2)NC(=O)[C@H](CCN)NC(=O)[C@@H](NC(=O)[C@H](CCN)NC(=O)[C@@H](NC(=O)[C@H](CCN)NC(=O)Nc2ccccc2Cl)[C@@H](C)O)CCNC(=O)[C@H]([C@@H](C)O)NC(=O)[C@H](CCN)NC(=O)[C@H](CCN)NC1=O [Compound 5, (S)-4-amino-N-((2S,3R)-1-((S)-4-amino-1-oxo-1-((3S,6S,9S,12S,15R,18S,21S)-6,9,18-tris(2-aminoethyl)-15-benzyl-3-((R)-1-hydroxyethyl)-12-isobutyl-2,5,8,11,14,17,20-heptaoxo-1,4,7,10,13,16,19-heptaazacyclotricosan-21-ylamino)butan-2-ylamino)-3-hydroxy-1-oxobutan-2-yl)-2-(3-(2-chlorophenyl)ureido)butanamide] ({NH(2-ClPh)-CO}-[Dab]T[Dab][Dab][Dab][dF]L[Dab][Dab]T; lactam 4-C)	4 micrograms/mL	4 micrograms/mL	0.5 micrograms/mL	>16 micrograms/mL	2 micrograms/mL					2-4 micrograms/ml	5.49 ± 1.27 Log10 CFU/mL	4.86 ± 1.18 Log10 CFU/mL	4.13 ± 1.46 Log10 CFU/mL	2.56 ± 0.34 Log10 CFU/mL	2.51 ± 0.70 Log10 CFU/mL	9.05^b mg/kg, BID	2 micrograms/mL	greater than blood volume	less than hepatic blood flow	4 micrograms/mL
